Data as given in the supplement of paper PMC10307832.

What was measured:
Test in all cases: relative viability (nuclei count vs DMSO), 5 days (fraction); higher = more cells survive
Shikonin + AZD7762 = compound: CC(C)=CC[C@@H](O)C1=CC(=O)c2c(O)ccc(O)c2C1=O [Shikonin] + NC(=O)Nc1cc(-c2cccc(F)c2)sc1C(=O)N[C@H]1CCCNC1 [AZD7762] (partner 0.2 µM)
In short: (§1)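 Relative viability is defined as nuclei in treated wells over nuclei in vehicle wells. Duplicate plates were run and medians reported. Lung cancer cell lines in 1536-well plates were dosed by pin tool one day after seeding, with one drug or with a fixed anchor-drug dose plus five library-drug doses (not always all listed) in √10 steps, and nuclei were counted after 5 days.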

[1] = compound: CC(C)N(CCCNC(=O)Nc1ccc(C(C)(C)C)cc1)C[C@H]1O[C@@H](n2ccc3c(N)ncnc32)[C@H](O)[C@@H]1O + Nc1ncn([C@H]2C[C@H](O)[C@@H](CO)O2)c(=O)n1 [Decitabine] (partner 2 µM)
In short: as §1

[2] = compound: CC(C)N(CCCNC(=O)Nc1ccc(C(C)(C)C)cc1)C[C@H]1O[C@@H](n2ccc3c(N)ncnc32)[C@H](O)[C@@H]1O + C[C@@H](Oc1cc(-c2cnn(C3CCNCC3)c2)cnc1N)c1c(Cl)ccc(F)c1Cl [Crizotinib] (partner 1 µM)
In short: as §1

Shikonin + Palbociclib = compound: CC(C)=CC[C@@H](O)C1=CC(=O)c2c(O)ccc(O)c2C1=O [Shikonin] + CC(=O)c1c(C)c2cnc(Nc3ccc(N4CCNCC4)cn3)nc2n(C2CCCC2)c1=O [Palbociclib] (partner 0.5 µM)
In short: as §1

Work on HCC-44 yielded a relative viability (Shikonin + AZD7762; first compound 0.01 µM) of 1.03, a relative viability (Shikonin + AZD7762; first compound 0.1 µM) of 1.01 and a relative viability (Shikonin + AZD7762; first compound 0.3162 µM) of 1.05. For the same cell line, the relative viability (Shikonin + AZD7762; first compound 1 µM) was 1.04, the relative viability ([1]; first compound 0.08 µM) was 0.979 and the relative viability ([1]; first compound 0.253 µM) was 1.01. It also gave a relative viability ([1]; first compound 0.8 µM) of 0.714, a relative viability ([1]; first compound 2.53 µM) of 0.966 and a relative viability ([1]; first compound 8 µM) of 0.915. The relative viability ([2]; first compound 0.08 µM) was 0.788, the relative viability ([2]; first compound 0.253 µM) was 0.864 and the relative viability ([2]; first compound 0.8 µM) was 0.832. The relative viability ([2]; first compound 2.53 µM) was 0.859, the relative viability ([2]; first compound 8 µM) was 0.744 and the relative viability (Shikonin + Palbociclib; first compound 0.01 µM) was 0.979. The relative viability (Shikonin + Palbociclib; first compound 0.1 µM) was 0.991, the relative viability (Shikonin + Palbociclib; first compound 0.3162 µM) was 0.984 and the relative viability (Shikonin + Palbociclib; first compound 1 µM) was 1.
For NCI-H650, the relative viability (Shikonin + AZD7762; first compound 0.01 µM) was 0.962, the relative viability (Shikonin + AZD7762; first compound 0.1 µM) was 1.07 and the relative viability (Shikonin + AZD7762; first compound 0.3162 µM) was 1.17. It also gave a relative viability (Shikonin + AZD7762; first compound 1 µM) of 0.947, a relative viability ([1]; first compound 0.08 µM) of 0.338 and a relative viability ([1]; first compound 0.253 µM) of 0.372. The relative viability ([1]; first compound 0.8 µM) was 0.335, the relative viability ([1]; first compound 2.53 µM) was 0.315 and the relative viability ([1]; first compound 8 µM) was 0.324. The relative viability ([2]; first compound 0.08 µM) was 0.63, the relative viability ([2]; first compound 0.253 µM) was 0.709 and the relative viability ([2]; first compound 0.8 µM) was 0.785. The relative viability ([2]; first compound 2.53 µM) was 0.719, the relative viability ([2]; first compound 8 µM) was 0.724 and the relative viability (Shikonin + Palbociclib; first compound 0.01 µM) was 0.325. The relative viability (Shikonin + Palbociclib; first compound 0.1 µM) was 0.314, the relative viability (Shikonin + Palbociclib; first compound 0.3162 µM) was 0.334 and the relative viability (Shikonin + Palbociclib; first compound 1 µM) was 0.34.
With H3255 the relative viability (Shikonin + AZD7762; first compound 0.01 µM) was 0.909, the relative viability (Shikonin + AZD7762; first compound 0.1 µM) was 0.977 and the relative viability (Shikonin + AZD7762; first compound 0.3162 µM) was 0.943. For the same cell line, the relative viability (Shikonin + AZD7762; first compound 1 µM) was 0.911, the relative viability ([1]; first compound 0.08 µM) was 0.613 and the relative viability ([1]; first compound 0.253 µM) was 0.645. It also gave a relative viability ([1]; first compound 0.8 µM) of 0.491, a relative viability ([1]; first compound 2.53 µM) of 0.626 and a relative viability ([1]; first compound 8 µM) of 0.511. For the same cell line, the relative viability ([2]; first compound 0.08 µM) was 0.763, the relative viability ([2]; first compound 0.253 µM) was 0.76 and the relative viability ([2]; first compound 0.8 µM) was 0.959. For the same cell line, the relative viability ([2]; first compound 2.53 µM) was 0.717, the relative viability ([2]; first compound 8 µM) was 0.735 and the relative viability (Shikonin + Palbociclib; first compound 0.01 µM) was 0.316. It also gave a relative viability (Shikonin + Palbociclib; first compound 0.1 µM) of 0.333, a relative viability (Shikonin + Palbociclib; first compound 0.3162 µM) of 0.337 and a relative viability (Shikonin + Palbociclib; first compound 1 µM) of 0.303.
NCI-H2085 showed a relative viability (Shikonin + AZD7762; first compound 0.01 µM) of 1.02, a relative viability (Shikonin + AZD7762; first compound 0.1 µM) of 1.06 and a relative viability (Shikonin + AZD7762; first compound 0.3162 µM) of 0.957. It also gave a relative viability (Shikonin + AZD7762; first compound 1 µM) of 1.05, a relative viability ([1]; first compound 0.08 µM) of 0.55 and a relative viability ([1]; first compound 0.253 µM) of 0.486. It also gave a relative viability ([1]; first compound 0.8 µM) of 0.561, a relative viability ([1]; first compound 2.53 µM) of 0.542 and a relative viability ([1]; first compound 8 µM) of 0.546. It also gave a relative viability ([2]; first compound 0.08 µM) of 0.764, a relative viability ([2]; first compound 0.253 µM) of 0.884 and a relative viability ([2]; first compound 0.8 µM) of 0.99. For the same cell line, the relative viability ([2]; first compound 2.53 µM) was 0.836, the relative viability ([2]; first compound 8 µM) was 0.785 and the relative viability (Shikonin + Palbociclib; first compound 0.01 µM) was 0.468. It also gave a relative viability (Shikonin + Palbociclib; first compound 0.1 µM) of 0.509, a relative viability (Shikonin + Palbociclib; first compound 0.3162 µM) of 0.447 and a relative viability (Shikonin + Palbociclib; first compound 1 µM) of 0.479.
NCI-H2347 gave a relative viability (Shikonin + AZD7762; first compound 0.01 µM) of 0.77, a relative viability (Shikonin + AZD7762; first compound 0.1 µM) of 0.947 and a relative viability (Shikonin + AZD7762; first compound 0.3162 µM) of 0.829. For the same cell line, the relative viability (Shikonin + AZD7762; first compound 1 µM) was 0.712, the relative viability ([1]; first compound 0.08 µM) was 0.529 and the relative viability ([1]; first compound 0.253 µM) was 0.688. The relative viability ([1]; first compound 0.8 µM) was 0.616, the relative viability ([1]; first compound 2.53 µM) was 0.664 and the relative viability ([1]; first compound 8 µM) was 0.432. For the same cell line, the relative viability ([2]; first compound 0.08 µM) was 0.752, the relative viability ([2]; first compound 0.253 µM) was 0.497 and the relative viability ([2]; first compound 0.8 µM) was 0.582. For the same cell line, the relative viability ([2]; first compound 2.53 µM) was 0.709, the relative viability ([2]; first compound 8 µM) was 0.738 and the relative viability (Shikonin + Palbociclib; first compound 0.01 µM) was 0.432. The relative viability (Shikonin + Palbociclib; first compound 0.1 µM) was 0.424, the relative viability (Shikonin + Palbociclib; first compound 0.3162 µM) was 0.414 and the relative viability (Shikonin + Palbociclib; first compound 1 µM) was 0.397.
NCI-H1944 gave a relative viability (Shikonin + AZD7762; first compound 0.01 µM) of 0.454, a relative viability (Shikonin + AZD7762; first compound 0.1 µM) of 0.558 and a relative viability (Shikonin + AZD7762; first compound 0.3162 µM) of 0.763. It also gave a relative viability (Shikonin + AZD7762; first compound 1 µM) of 0.561, a relative viability ([1]; first compound 0.08 µM) of 0.451 and a relative viability ([1]; first compound 0.253 µM) of 0.438. For the same cell line, the relative viability ([1]; first compound 0.8 µM) was 0.471, the relative viability ([1]; first compound 2.53 µM) was 0.394 and the relative viability ([1]; first compound 8 µM) was 0.423. For the same cell line, the relative viability ([2]; first compound 0.08 µM) was 1.09, the relative viability ([2]; first compound 0.253 µM) was 1.09 and the relative viability ([2]; first compound 0.8 µM) was 1.14. The relative viability ([2]; first compound 2.53 µM) was 1.13, the relative viability ([2]; first compound 8 µM) was 1.1 and the relative viability (Shikonin + Palbociclib; first compound 0.01 µM) was 0.311. For the same cell line, the relative viability (Shikonin + Palbociclib; first compound 0.1 µM) was 0.403, the relative viability (Shikonin + Palbociclib; first compound 0.3162 µM) was 0.321 and the relative viability (Shikonin + Palbociclib; first compound 1 µM) was 0.349.
With NCI-H647 the relative viability (Shikonin + AZD7762; first compound 0.01 µM) was 0.646, the relative viability (Shikonin + AZD7762; first compound 0.1 µM) was 0.406 and the relative viability (Shikonin + AZD7762; first compound 0.3162 µM) was 0.429. For the same cell line, the relative viability (Shikonin + AZD7762; first compound 1 µM) was 0.529, the relative viability ([1]; first compound 0.08 µM) was 0.419 and the relative viability ([1]; first compound 0.253 µM) was 0.374. For the same cell line, the relative viability ([1]; first compound 0.8 µM) was 0.363, the relative viability ([1]; first compound 2.53 µM) was 0.336 and the relative viability ([1]; first compound 8 µM) was 0.392. The relative viability ([2]; first compound 0.08 µM) was 1.01, the relative viability ([2]; first compound 0.8 µM) was 1.05 and the relative viability ([2]; first compound 2.53 µM) was 1.15. For the same cell line, the relative viability ([2]; first compound 8 µM) was 0.953, the relative viability (Shikonin + Palbociclib; first compound 0.01 µM) was 0.487 and the relative viability (Shikonin + Palbociclib; first compound 0.1 µM) was 0.325. It also gave a relative viability (Shikonin + Palbociclib; first compound 0.3162 µM) of 0.38 and a relative viability (Shikonin + Palbociclib; first compound 1 µM) of 0.361.
EKVX was tested, and the relative viability (Shikonin + AZD7762; first compound 0.01 µM) was 0.744, the relative viability (Shikonin + AZD7762; first compound 0.1 µM) was 0.698 and the relative viability (Shikonin + AZD7762; first compound 0.3162 µM) was 0.851. The relative viability (Shikonin + AZD7762; first compound 1 µM) was 0.703, the relative viability ([1]; first compound 0.08 µM) was 0.342 and the relative viability ([1]; first compound 0.253 µM) was 0.339. The relative viability ([1]; first compound 0.8 µM) was 0.327, the relative viability ([1]; first compound 2.53 µM) was 0.36 and the relative viability ([1]; first compound 8 µM) was 0.351. For the same cell line, the relative viability ([2]; first compound 0.08 µM) was 0.989, the relative viability ([2]; first compound 0.253 µM) was 0.83 and the relative viability ([2]; first compound 0.8 µM) was 0.822. The relative viability ([2]; first compound 2.53 µM) was 0.917, the relative viability ([2]; first compound 8 µM) was 0.804 and the relative viability (Shikonin + Palbociclib; first compound 0.01 µM) was 0.404. The relative viability (Shikonin + Palbociclib; first compound 0.1 µM) was 0.389, the relative viability (Shikonin + Palbociclib; first compound 0.3162 µM) was 0.413 and the relative viability (Shikonin + Palbociclib; first compound 1 µM) was 0.366.
Work on SW 900 yielded a relative viability (Shikonin + AZD7762; first compound 0.01 µM) of 0.769, a relative viability (Shikonin + AZD7762; first compound 0.1 µM) of 0.634 and a relative viability (Shikonin + AZD7762; first compound 0.3162 µM) of 0.262. For the same cell line, the relative viability (Shikonin + AZD7762; first compound 1 µM) was 0.542, the relative viability ([1]; first compound 0.08 µM) was 0.387 and the relative viability ([1]; first compound 0.253 µM) was 0.43. It also gave a relative viability ([1]; first compound 2.53 µM) of 0.42, a relative viability ([1]; first compound 8 µM) of 0.404 and a relative viability (Shikonin + Palbociclib; first compound 0.01 µM) of 0.563. It also gave a relative viability (Shikonin + Palbociclib; first compound 0.1 µM) of 0.559, a relative viability (Shikonin + Palbociclib; first compound 0.3162 µM) of 0.547 and a relative viability (Shikonin + Palbociclib; first compound 1 µM) of 0.542.
